The values that follow come from patent US12606585B2, “Fluorinated hexoses” (Stichting Radboud Universiteit, priority 2020, dated 2026).

Holding throughout (format): cell-based
The subject of assay [1] is THP-1 cells. Kind of assay: Lectin staining for fucose expression inhibition, THP-1 cells. The following applies: 3 days, 0-512 μM compound, flow cytometry. On the procedure:
(§1) THP-1 cells (TIB-202, ATCC) and Jurkat cells (TIB-152, ATCC) were cultured in RPMI-1640 medium containing 2 mM Glutamine and 25 mM HEPES (Gibco™, Life Technologies), supplemented with 10% v/v heat-inactivated fetal bovine serum (FBS) (Gibco™, Life Technologies) and 1× antibiotic-antimycotic solution (100 units/mL of penicillin, 100 μg/mL of streptomycin, and 0.25 μg/mL Fungizone) (Gibco™, Life Technologies) and passaged every 3-4 day by seeding a fraction of 0.5-2 min cells of the culture per 10 ml medium. EL-4 cells (TIB-39, ATCC) were cultured in DMEM medium (Gibco™, Life Technologies), supplemented with 10% v/v heat-inactivated fetal bovine serum (FBS) (Gibco™, Life Technologies), 1× antibiotic-antimycotic solution (100 units/mL of penicillin, 100 μg/mL of streptomycin, and 0.25 μg/mL Fungizone) (Gibco™, Life Technologies) and 2 mM Glutamine (Gibco™, Life Technologies) and passaged every 2-4 days by seeding a fraction of 0.5-1 min cells of the culture per 10 ml medium. For passaging a T75 flask (Corning), medium was removed and the monolayer was washed with 10 ml PBS pH 7.2 without CaCl2) and MgCl2 (Gibco™, Life Technologies) before adding 3.5 ml 0.05% trypsin/EDTA solution (Gibco™ 5 Life Technologies) in PBS. Cells were incubated at rt for 30-45 s after which the trypsin/EDTA-solution was removed. Cells were incubated for an additional 2 min at 37° C., 5.0% CO2 and resuspended in cell culture medium. Cells were then seeded at ˜40.000 cells/cm^2 in new culture flasks. All cells were cultured at 37° C., 5% CO2 in a humidified incubator.
(§2) Protocol below was repeated until n>=3 for each compounds using cells at different passage numbers. Cells were cultured in medium containing different concentrations of unnatural sugar derivatives on either 24-wells plates (adherent cell lines; 80,000 cells per well) (Corning) or 96-wells plates (suspension cell lines; 13,000-20,000 cells per well) (Thermo Scientific). DMSO, at same dilution as the unnatural sugar derivative stock solutions, was used as a positive control for lectin staining; P-Fuc2F was used for all concentrations as negative control. Cells were incubated for three days at 37° C. and 5% CO2 in a humidified incubator. Cells were harvested and washed with 100 μl 1×CF-blocking buffer (Vector Laboratories Inc.) containing 1 mM CaCl2) and 1 mM MgCl2. The cells were then resuspended in 50 μl 0.5 μg/ml of 0.5 ng/ml biotinylated lectin in 1× carbo-free blocking buffer and incubated at 4-8° C. for 45-60 min. Cells were washed with 3×100 μl PBA (PBS containing 1% v/v FBS and 0.1% w/w sodium azide), incubated with 40 μl 1 μg/ml Streptavidin-phycoerythrin conjugate (Invitrogen, eBioscience) in PBA for 10-15 min at 4-8° C. Cells were then washed again with 3×100 μl PBA, resuspended in PBA and fluorescence was measured with a flow cytometer (Beckman & Dickinson FACS-Calibur). Each replicate for each condition with >10,000 gated events. Data was processed using FlowJo (FlowJo LLC). Percentage of lectin binding was obtained by normalizing the MFI values to the MFI values of the respective DMSO control.
(§3) Three cell lines (THP-1, Jurkat, EL4) were cultured for 3 days with 0-512 μM compound. The cells were stained with two fucose specific lectins (AAL & AOL) and analysed by flow cytometry, presented as mean percentage lectin binding normalized to control (n=3).

The next assay deals with Jurkat cells. Description: Lectin staining for fucose expression inhibition, Jurkat cells. Conditions: 3 days, 0-512 μM compound, flow cytometry. On the procedure: as §1, §2, §3
For orientation: Flow cytometry measures light scatter and fluorescence of single cells or particles in a stream.

In the next assay the test system is EL4 cells. Kind of assay: Lectin staining for fucose expression inhibition, EL4 cells. Conditions: 3 days, 0-512 μM compound, flow cytometry. As to the method: as §1, §2, §3
Assay [2] concerns THP-1 cells. Kind of assay: Onset and recovery of inhibition. The following applies: for effect on lectin binding (FIG. 5): AAL or AOL lectin. On the procedure:
Cells were cultured in medium containing different concentrations of unnatural sugar derivatives on 96-wells plates (suspension cell lines; 13,000-20,000 cells per well) (Thermo Scientific). DMSO, at same dilution as the unnatural sugar derivative stock solutions, was used as a positive control for lectin staining; P-Fuc2F was used for all concentrations as negative control. Cells were incubated for eight days at 37° C. and 5% CO2 in a humidified incubator. Medium was changed after three and six days of incubation with cell culture medium without unnatural sugar derivatives. Every day cells were harvested and washed with 100 μl 1× CF-blocking buffer (Vector Laboratories Inc.) containing 1 mM CaCl2) and 1 mM MgCl2. The cells were then resuspended in 50 μl 0.5 μg/ml of either 0.5 ng/ml biotinylated AAL, AOL, SNA, MAL-II, WGA, LCA, PSA, PNA, PHA-L or GSL-1 lectin in 1× carbo-free blocking buffer or with 50 μl of non-supplemented 1× carbo-free blocking buffer and incubated at 4-8° C. for 45-60 min. Cells were washed with 3×100 μl PBA (PBS containing 1% v/v FBS and 0.1% w/w sodium azide), incubated with 40 μl 1 μg/ml Streptavidin-phycoerythrin conjugate (Invitrogen, eBioscience) in PBA for 10-15 min at 4-8° C. Cells were then washed again with 3×100 μl PBA, resuspended in PBA and fluorescence was measured with a flow cytometer (Beckman & Dickinson FACS-Calibur). Each replicate for each condition with >10,000 gated events. Data was processed using FlowJo (FlowJo LLC). Percentage of lectin binding was obtained by normalizing the MFI values to the MFI values of the respective DMSO control.
The onset of inhibition and duration for recovery was evaluated on THP-1 cells with 100 and 10 μM compound using the AAL lectin (FIG. 5). At 100 μM concentration compounds 9 and 10 inhibit fucosylation after 1 day and to over 50% after 3 days. Fucosylation was fully recovered to normal 5 levels on day 6. […] Similar results were obtained using the AOL lectin.

Setting [3] is: Homo sapiens, 72 h, AAL lectin, n=3, read-out: EC50 for fucose expression inhibition, THP-1 AAL.
Setting [4] is: Homo sapiens, 72 h, AOL lectin, n=3, read-out: EC50 for fucose expression inhibition, THP-1 AOL.
Where [5] appears, read: Homo sapiens, 72 h, AAL lectin, n=3, read-out: EC50 for fucose expression inhibition, Jurkat AAL.
The mark [6] stands for this setting: Homo sapiens, 72 h, AOL lectin, n=3, read-out: EC50 for fucose expression inhibition, Jurkat AOL.
[7] abbreviates: Mus musculus, 72 h, AAL lectin, n=3, read-out: EC50 for fucose expression inhibition, EL4 AAL.
Setting [8] is: Mus musculus, 72 h, AOL lectin, n=3, read-out: EC50 for fucose expression inhibition, EL4 AOL.

Structures are written as SMILES. Where two headings read alike, the source gives them in different places.

For orientation: EC50 means the concentration that produces a half-maximal response. In the case of `CC(=O)OC1C(OC(C)=O)[C@H](OC(C)=O)C(CF)O[C@@H]1OP(=O)(OCCSC(C)=O)OCCSC(C)=O` (stereo partly drawn) [P-D-Rha6F-1P (8), Di-(S-acetyl-2-thioethyl)-(2,3,4-tri-O-acetyl-6-fluoro-α-D-rhamnopyranoside) phosphate], the EC50 is 267 µM in the assay with THP-1 cells [1] (setting [3]); 84.4 µM with THP-1 cells [1] (setting [4]); 174 µM with Jurkat cells (setting [5]); 345 µM in the assay on Jurkat cells (setting [6]); more than 500 µM in the assay on EL4 cells (setting [7]); more than 500 µM in the assay on EL4 cells (setting [8]).
On to `CC(=O)OC1C(OC(C)=O)[C@H](OC(C)=O)C(C)O[C@@H]1OP(=O)(OCCSC(C)=O)OCCSC(C)=O` (stereo partly drawn) [P-D-Rha-1P (7), Di-(S-acetyl-2-thioethyl)-(2,3,4-tri-O-acetyl-α-D-rhamnopyranoside) phosphate], for which the EC50 in the assay on THP-1 cells [1] (setting [3]) was more than 500 µM; in the assay with THP-1 cells [1] (setting [4]) it was 137 µM; with Jurkat cells (setting [5]) it was more than 500 µM; in the assay with Jurkat cells (setting [6]) it was 153 µM; in the assay with EL4 cells (setting [7]), more than 500 µM; in the assay with EL4 cells (setting [8]), more than 500 µM.
For the compound `CC(=O)OC1O[C@@H](C)[C@@H](OC(C)=O)[C@@H](OC(C)=O)[C@@H]1F` (stereo partly drawn) [P-Fuc2Feq, reference compound], the EC50 is 44.9 µM with THP-1 cells [1] (AAL lectin, n=3, read-out: EC50 for fucose expression inhibition, THP-1 AAL); 30.7 µM in the assay on THP-1 cells [1] (AOL lectin, n=3, read-out: EC50 for fucose expression inhibition, THP-1 AOL); 115 µM with Jurkat cells (AAL lectin, n=3, read-out: EC50 for fucose expression inhibition, Jurkat AAL); 121 µM in the assay on Jurkat cells (AOL lectin, n=3, read-out: EC50 for fucose expression inhibition, Jurkat AOL); more than 500 µM with EL4 cells (AAL lectin, n=3, read-out: EC50 for fucose expression inhibition, EL4 AAL); more than 500 µM with EL4 cells (AOL lectin, n=3, read-out: EC50 for fucose expression inhibition, EL4 AOL). Further, the “inhibition of fucosylation at 10 μM” value in the assay on THP-1 cells [2] (10 μM, AAL lectin) was “no inhibition”. Also, in the assay on THP-1 cells [2] (10 μM), the “effect on lectin binding (FIG. 5)” value is “no longer discernible”.
Turning to `CC(=O)OCC1O[C@H](OP(=O)(OCCSC(C)=O)OCCSC(C)=O)C(OC(C)=O)C(OC(C)=O)[C@@H]1OC(C)=O` (stereo partly drawn) [P-D-Man-1P (6), Di-(S-acetyl-2-thioethyl)-(2,3,4,6-tetra-O-acetyl-α-D-mannopyranoside) phosphate], the EC50 in the assay on THP-1 cells [1] (setting [3]), in the assay with THP-1 cells [1] (setting [4]), in the assay with Jurkat cells (setting [5]), in the assay on Jurkat cells (setting [6]), in the assay with EL4 cells (setting [7]) and in the assay with EL4 cells (setting [8]) was more than 500 µM each time. For the same compound, the “effect on lectin binding (FIG. 5)” value with THP-1 cells [2] (100 μM) was “no effect”.
